Assays:
rape = test: Test B pre/postemergence rape; assay type: in vivo, Brassica napus
How it was run: (§1)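 Herbicidal effect was estimated by eye on a ten-point control scale after plants spent twelve to sixteen days in a greenhouse following soil or foliar treatment. Foliar sprays targeted plants at one to four leaves; all doses were formulated in a non-phytotoxic solvent with surfactant.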

purple nutsedge = test: Test B pre/postemergence purple nutsedge; assay type: in vivo, Cyperus rotundus
How it was run: as §1

rice = test: Test B flood test rice; assay type: in vivo, Oryza sativa
How it was run: (§2)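 Flood test on plants grown to the 2-leaf stage; treated plants kept in greenhouse twelve to sixteen days, then visually rated against controls on a 0 (no effect) to 10 (complete control) scale.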

pigweed = test: Test B pre/postemergence pigweed; assay type: in vivo, Amaranthus retroflexus
How it was run: as §1

smallflower flatsedge = test: Test B flood test smallflower flatsedge; assay type: in vivo, Cyperus difformis
How it was run: as §2

soybean = test: Test B pre/postemergence soybean; assay type: in vivo, Glycine max
How it was run: as §1

duck salad = test: Test B flood test duck salad; assay type: in vivo, Heteranthera limosa
How it was run: as §2

velvetleaf = test: Test B pre/postemergence velvetleaf; assay type: in vivo, Abutilon theophrasti; conditions: for Plant response rating, Velvetleaf: Rate 250 g/ha
How it was run: as §1

wild oat = test: Test B pre/postemergence wild oat; assay type: in vivo, Avena fatua; conditions: for Plant response rating, Wild oats: Rate 250 g/ha
How it was run: as §1

wheat = test: Test B pre/postemergence wheat; assay type: in vivo, Triticum aestivum; conditions: for Plant response rating, Wheat: Rate 250 g/ha
How it was run: as §1

giant foxtail = test: Test B pre/postemergence giant foxtail; assay type: in vivo, Setaria faberii
How it was run: as §1

cocklebur = test: Test B pre/postemergence cocklebur; assay type: in vivo, Xanthium strumarium
How it was run: as §1

corn = test: Test B pre/postemergence corn; assay type: in vivo, Zea mays
How it was run: as §1

bedstraw = test: Test B pre/postemergence bedstraw; assay type: in vivo, Galium aparine
How it was run: as §1

sugar beet = test: Test B pre/postemergence sugar beet; assay type: in vivo, Beta vulgaris; conditions: for Plant response rating, Sugarbeets: Rate 250 g/ha
How it was run: as §1

surinam grass = test: Test B pre/postemergence surinam grass; assay type: in vivo, Brachiaria decumbens
How it was run: as §1

[1] = Postemergence, Rate 62 g/ha, scale 0 to 10, 0 is no effect, 10 is complete control
[2] = Postemergence, Rate 125 g/ha, scale of 0 to 10 where 0 is no effect and 10 is complete control
[3] = Postemergence, Rate 250 g/ha, scale 0 to 10, 0 no effect, 10 complete control
[4] = Preemergence, Rate 62 g/ha, scale 0 to 10 (0 no effect, 10 complete control)
[5] = Preemergence, Rate 125 g/ha, scale 0 to 10 (0 no effect, 10 complete control)
[6] = Preemergence, Rate 250 g/ha, scale of 0 to 10 where 0 is no effect and 10 is complete control
[7] = Preemergence, Rate 500 g/ha, scale 0 (no effect) to 10 (complete control)
[8] = Rate 500 g/ha, Postemergence, scale 0 to 10, 0 no effect, 10 complete control
[9] = Postemergence (flood test species), Rate 125 g/ha, scale of 0 to 10 where 0 is no effect and 10 is complete control
[10] = Rate 250 g/ha, Postemergence (flood test), scale 0 to 10, 0 is no effect, 10 is complete control
[11] = Rate 250 g/ha, headed Pre-emergence (flood test species), scale 0 to 10 (0 no effect, 10 complete control)
[12] = Rate 500 g/ha, headed Pre-emergence (flood test species), scale 0 to 10 (0 no effect, 10 complete control)
[13] = Rate 500 g/ha, listed under Postemergence (flood test species), scale 0 to 10, 0 no effect, 10 complete control
[14] = Rate 1000 g/ha, Pre-emergence (as headed), scale 0 to 10
[15] = Rate 2000 g/ha, Pre-emergence (as headed), scale 0 to 10
[16] = Rate 250 g/ha, Postemergence, scale 0 to 10, 0 is no effect, 10 is complete control
[17] = Preemergence, Rate 125 g/ha, 0 is no effect, 10 is complete control
[18] = Preemergence, scale of 0 to 10 where 0 is no effect and 10 is complete control
[19] = Postemergence, scale 0 to 10, 0 is no effect, 10 is complete control

For `C=CCn1c(=O)on(C(=O)N(c2ccccc2)C(C)C)c1=O` [Compound 93], the “Rape plant response rating” value (rape; [1]) was 2, the “Rape plant response rating” value (rape; [2]) was 3 and the “Rape plant response rating” value (rape; [3]) was 4. For the same compound, the “Rape plant response rating” value (rape; [4]) was 3, the “Plant response rating, Rape” value (rape; [5]) was 7 and the “Plant response rating, Rape” value (rape; [6]) was 8. For the same compound, the “Rape plant response rating” value (rape; [7]) was 10, the “Rape plant response rating” value (rape; [8]) was 5 and the “Nutsedge plant response rating” value (purple nutsedge; [1]) was 0. The “Nutsedge plant response rating” value (purple nutsedge; [2]) was 0, the “Nutsedge plant response rating” value (purple nutsedge; [3]) was 0 and the “Nutsedge plant response rating” value (purple nutsedge; [4]) was 0. The “Plant response rating, Nutsedge” value (purple nutsedge; [5]) was 0, the “Plant response rating, Nutsedge” value (purple nutsedge; [6]) was 0 and the “Nutsedge plant response rating” value (purple nutsedge; [8]) was 3. The “Rice plant response rating” value (rice; [9]) was 0, the “Rice plant response rating” value (rice; [1]) was 0 and the “Plant response rating, Rice” value (rice; [10]) was 0. The “Rice plant response rating” value (rice; [11]) was 0, the “Plant response rating, Rice” value (rice; [12]) was 0 and the “Rice plant response rating” value (rice; [13]) was 4. The “Rice plant response rating” value (rice; [14]) was 0, the “Rice plant response rating” value (rice; [15]) was 0 and the “Redroot pigweed plant response rating” value (pigweed; [1]) was 2. The “Redroot pigweed plant response rating” value (pigweed; [2]) was 4, the “Redroot pigweed plant response rating” value (pigweed; [4]) was 9 and the “Plant response rating, Redroot pigweed” value (pigweed; [5]) was 8. The “Plant response rating, Redroot pigweed” value (pigweed; [6]) was 10, the “Redroot pigweed plant response rating” value (pigweed; [7]) was 10 and the “Plant response rating, Redroot pigweed” value (pigweed; [16]) was 7. For the same compound, the “Redroot pigweed plant response rating” value (pigweed; [8]) was 7, the “S. Flatsedge plant response rating” value (smallflower flatsedge; [9]) was 0 and the “S. Flatsedge plant response rating” value (smallflower flatsedge; [1]) was 0. For the same compound, the “S. Flatsedge plant response rating” value (smallflower flatsedge; Pre-emergence, Rate 1000 g/ha, scale 0 to 10 (0 no effect, 10 complete control)) was 0, the “Plant response rating, S. Flatsedge” value (smallflower flatsedge; [10]) was 0 and the “S. Flatsedge plant response rating” value (smallflower flatsedge; [11]) was 0. The “Plant response rating, S. Flatsedge” value (smallflower flatsedge; [12]) was 0, the “S. Flatsedge plant response rating” value (smallflower flatsedge; [13]) was 6 and the “S. Flatsedge plant response rating” value (smallflower flatsedge; [15]) was 0. For the same compound, the “Soybean plant response rating” value (soybean; [1]) was 4, the “Soybean plant response rating” value (soybean; [2]) was 5 and the “Soybean plant response rating” value (soybean; [4]) was 0. For the same compound, the “Plant response rating, Soybean” value (soybean; [5]) was 2, the “Plant response rating, Soybean” value (soybean; [6]) was 7 and the “Soybean plant response rating” value (soybean; [7]) was 9. For the same compound, the “Plant response rating, Soybean” value (soybean; [16]) was 5, the “Soybean plant response rating” value (soybean; [8]) was 7 and the “Ducksalad plant response rating” value (duck salad; [9]) was 0. For the same compound, the “Ducksalad plant response rating” value (duck salad; [1]) was 0, the “Ducksalad plant response rating” value (duck salad; [11]) was 0 and the “Plant response rating, Ducksalad” value (duck salad; [12]) was 0. For the same compound, the “Ducksalad plant response rating” value (duck salad; [13]) was 0, the “Ducksalad plant response rating” value (duck salad; [14]) was 0 and the “Ducksalad plant response rating” value (duck salad; [15]) was 0. For the same compound, the “Ducksalad plant response rating” value (duck salad; flood test, listed under Postemergence, Rate 250 g/ha, scale 0 to 10, 0 no effect, 10 complete control) was 0, the “Velvetleaf plant response rating” value (velvetleaf; [1]) was 0 and the “Velvetleaf plant response rating” value (velvetleaf; [2]) was 0. For the same compound, the “Velvetleaf plant response rating” value (velvetleaf; [4]) was 5, the “Velvetleaf plant response rating (0 to 10 scale)” value (velvetleaf; [17]) was 6 and the “Plant response rating, Velvetleaf” value (velvetleaf; [18]) was 6. For the same compound, the “Velvetleaf plant response rating” value (velvetleaf; [7]) was 10, the “Plant response rating, Velvetleaf” value (velvetleaf; [19]) was 0 and the “Velvetleaf plant response rating” value (velvetleaf; [8]) was 6. The “Wild oats plant response rating” value (wild oat; [1]) was 0, the “Wild oats plant response rating” value (wild oat; [2]) was 0 and the “Wild oats plant response rating” value (wild oat; [4]) was 8. The “Wild oats plant response rating (0 to 10 scale)” value (wild oat; [17]) was 8, the “Plant response rating, Wild oats” value (wild oat; [18]) was 10 and the “Wild oats plant response rating” value (wild oat; [7]) was 10. For the same compound, the “Plant response rating, Wild oats” value (wild oat; [19]) was 2, the “Wild oats plant response rating” value (wild oat; [8]) was 5 and the “Wheat plant response rating” value (wheat; [1]) was 0. The “Wheat plant response rating” value (wheat; [2]) was 3, the “Wheat plant response rating” value (wheat; [4]) was 3 and the “Wheat plant response rating (0 to 10 scale)” value (wheat; [17]) was 3. For the same compound, the “Plant response rating, Wheat” value (wheat; [18]) was 6, the “Wheat plant response rating” value (wheat; [7]) was 8 and the “Plant response rating, Wheat” value (wheat; [19]) was 4. The “Wheat plant response rating” value (wheat; [8]) was 5, the “Giant foxtail plant response rating” value (giant foxtail; [1]) was 6 and the “Giant foxtail plant response rating” value (giant foxtail; [2]) was 7. For the same compound, the “Giant foxtail plant response rating” value (giant foxtail; [3]) was 9, the “Giant foxtail plant response rating” value (giant foxtail; [4]) was 10 and the “Plant response rating, Giant foxtail” value (giant foxtail; [5]) was 10. For the same compound, the “Plant response rating, Giant foxtail” value (giant foxtail; [6]) was 10, the “Giant foxtail plant response rating” value (giant foxtail; [7]) was 10 and the “Giant foxtail plant response rating” value (giant foxtail; [8]) was 9. The “Cocklebur plant response rating” value (cocklebur; [1]) was 0, the “Cocklebur plant response rating” value (cocklebur; [2]) was 1 and the “Cocklebur plant response rating” value (cocklebur; [3]) was 2. The “Cocklebur plant response rating” value (cocklebur; [4]) was 2, the “Plant response rating, Cocklebur” value (cocklebur; [5]) was 2 and the “Cocklebur plant response rating” value (cocklebur; [8]) was 4. For the same compound, the “Corn plant response rating” value (corn; [1]) was 3, the “Corn plant response rating” value (corn; [2]) was 4 and the “Corn plant response rating” value (corn; [3]) was 5. The “Corn plant response rating” value (corn; [4]) was 3, the “Plant response rating, Corn” value (corn; [5]) was 7 and the “Plant response rating, Corn” value (corn; [6]) was 8. The “Corn plant response rating” value (corn; [7]) was 9, the “Corn plant response rating” value (corn; [8]) was 5 and the “Bedstraw plant response rating” value (bedstraw; [4]) was 0. The “Plant response rating, Bedstraw” value (bedstraw; [5]) was 0, the “Plant response rating, Bedstraw” value (bedstraw; [6]) was 0 and the “Bedstraw plant response rating” value (bedstraw; [7]) was 3. The “Bedstraw plant response rating” value (bedstraw; [8]) was 7, the “Sugarbeets plant response rating” value (sugar beet; [1]) was 2 and the “Sugarbeets plant response rating” value (sugar beet; [2]) was 3. For the same compound, the “Sugarbeets plant response rating” value (sugar beet; [4]) was 6, the “Sugarbeets plant response rating (0 to 10 scale)” value (sugar beet; [17]) was 7 and the “Plant response rating, Sugarbeets” value (sugar beet; [18]) was 8. For the same compound, the “Sugarbeets plant response rating” value (sugar beet; [7]) was 9, the “Plant response rating, Sugarbeets” value (sugar beet; [19]) was 3 and the “Sugarbeets plant response rating” value (sugar beet; [8]) was 5. For the same compound, the “B. signalgrass plant response rating” value (surinam grass; [1]) was 3, the “B. signalgrass plant response rating” value (surinam grass; [3]) was 8 and the “Plant response rating, B. signalgrass” value (surinam grass; [5]) was 7. The “B. signalgrass plant response rating” value (surinam grass; [7]) was 8, the “B. signalgrass plant response rating” value (surinam grass; Rate 125 g/ha, Postemergence, scale 0 to 10, 0 no effect, 10 complete control) was 5 and the “B. signalgrass plant response rating” value (surinam grass; Rate 500 g/ha, Postemergence, scale of 0 to 10 where 0 is no effect and 10 is complete control) was 9.

— US6737383B1, “Herbicidal oxadiazolidines” (priority 1999, dated 2004)
